Measurements as given in patent US3994910A, “Derivatives of 1,2-diphenyl-3,5-dioxo-4-N-butyl-pyrazolidine and process for making same” (Antonia Gallardo, S.A., priority 1973, dated 1976).
Entries after “also recorded” stand apart in the source; their conditions may differ. Counter-ions that a name gives are not always drawn. Like-named read-outs stand apart in the source and are kept apart here.

Experiments:
in vivo = settings: rat, po
rat stomach [1] = settings: in vivo
[2] = test system: contortions induced by acetic acid in mice; test: Inhibition of contortions induced by acetic acid injected into the abdominal cavity of the mouse; type: in vivo
[3] = test system: granuloma induced in rats by implantation of cotton balls; test: Granuloma induced in rats by implantation of cotton balls; type: in vivo, rat; settings: for Dry granuloma ± standard error: net weight, (mg) printed in adjoining wet weight head; for Weight of wet granuloma: net weight ± standard error
Text: The figures refer to the net weight of granuloma tissue obtained by subtracting the original weight of the cotton ball.

[4] = test system: humans with reumatic diseases; test: Treatment of humans with reumatic diseases / polyarthritics; type: in vivo, human
Text: In general, the new therapeutic compounds can be used to treat the same disorders as phenylbutazone. […] These therapeutic compounds have been found effective in treating humans as well as animals.

rat stomach [5] = test: Ulcerogenic activity on the stomach; settings: compared with phenylbutazone
[6] = test system: carrageenin-induced oedema in the rat's paw; test: Inhibition of carrageenin-induced oedema in rat's paw; settings: for % Inhibition ± standard error (paw oedema): 3 hours after carrageenin; for Volume of paw (ml) ± standard error: measured 3 hours after carrageenin
[7] = background knowledge; cited from earlier work
[8] = 30 mg/kg per os 1 h before acetic acid injection
[9] = 100 mg/kg per os 1 h before acetic acid injection
[10] = 300 mg/kg per os 1 h before acetic acid injection
[11] = high doses (200 mg/kg), both products compared
[12] = lower dose levels (100 and 50 mg/kg)
[13] = 25 mg/kg per os 1 h before carrageenin
[14] = 50 mg/kg per os 1 h before carrageenin
[15] = 100 mg/kg per os 1 h before carrageenin
[16] = 200 mg/kg per os 1 h before carrageenin

Row | SMILES | UG: Intensity of ulceration produced in the rat stomach (rat stomach [1]) | No. of contortions ± standard error [2, 8] | % inhibition ± standard error (contortions) [2, 9] [%] | No. of contortions ± standard error [2, 9] | No. of contortions ± standard error [2, 10] | Percentage inhibition Dry granuloma ([3]; 50 mg/Kg/day per os) [%] | Percentage inhibition Wet granuloma ([3]; 50 mg/Kg/day per os) [%] | Dry granuloma ± standard error ([3]; 50 mg/Kg/day per os) [mg] | Percentage inhibition Dry granuloma ([3]; 100 mg/Kg/day per os) [%] | Percentage inhibition Wet granuloma ([3]; 100 mg/Kg/day per os) [%] | Dry granuloma ± standard error ([3]; 100 mg/Kg/day per os) [mg] | Percentage inhibition Dry granuloma ([3]; 200 mg/Kg/day per os) [%] | Percentage inhibition Wet granuloma ([3]; 200 mg/Kg/day per os) [%] | Dry granuloma ± standard error ([3]; 200 mg/Kg/day per os) [mg] | inhibition of granuloma tissue formation [3, 11] | inhibition of granuloma tissue formation [3, 12] | ulcerogenic indices ± standard error (rat stomach [1]; 50 mg/kg) | ulcerogenic indices ± standard error (rat stomach [1]; 100 mg/kg) | ulcerogenic indices ± standard error (rat stomach [1]; 200 mg/kg) | Volume of paw (ml) ± standard error [6, 13] [mL] | further results
1 | NC1=NCCS1 [2-amino-thiazoline, 2-amino-2-thiazoline] |  |  |  |  |  |  |  |  |  |  |  |  |  |  |  |  |  |  |  |  | No. deaths (rat; 316 mg/kg per os): 2; No. deaths (rat; 383 mg/kg per os): 4; No. deaths (rat; 464 mg/kg per os): 6; No. deaths (rat; 562 mg/kg per os): 7; No. deaths (rat; 681 mg/kg per os): 9; No. deaths (rat; 825 mg/kg per os): 9; LD50 (in vivo): 430 mg/kg; mortality (in vivo; 316 mg/kg): 20%; mortality (in vivo; 383 mg/kg): 40%; mortality (in vivo; 464 mg/kg): 60%; mortality (in vivo; 562 mg/kg): 70%; mortality (in vivo; 681 mg/kg): 90%; mortality (in vivo; 825 mg/kg): 90%
2 | CCCCC1C(=O)N(c2ccccc2)N(c2ccccc2)C1=O [LAS 6671, 1,2-diphenyl-3,5-dioxo-4-n-butylpyrazolidine-2-amino-4-methyl-pyridine] | + |  |  |  |  |  |  |  |  |  |  |  |  |  |  |  |  |  |  |  | 
3 | CCCCC1C(=O)N(c2ccccc2)N(c2ccccc2)C1=O [LAS 11871, 1,2-diphenyl-3,5-dioxo-4-n-butylpyrazolidine-2-amino-2-thiazoline] | + | 44.20 ± 6.03 | 54.90 ± 7.76 | 36.90 ± 6.34 | 24.10 ± 3.74 | 20.00 | 14.40 ± 1.90 | 61.82 ± 3.16 | 19.90 ± 6.10 | 18.60 ± 3.70 | 61.95 ± 4.74 | 37.60 ± 2.50 | 20.50 ± 2.80 | 48.29 ± 1.98 | about the same degree of inhibition of granuloma tissue formation | continued to inhibit the granuloma tissue formation | 0.59 ± 0.19 | 2.43 ± 0.41 | 3.65 ± 0.56 | 0.7864 ± 0.0632 | % inhibition ± standard error (contortions) [2, 10]: 70.50 ± 4.60%; analgesic activity compared with phenylbutazone ([2]; mouse, in vivo): more potent than phenylbutazone as an analgesic; also recorded: more active as an analgesic and anti-inflammatory agent than phenylbutazone; treatment of polyarthritics ([4]; 200 mg two, or three times per day): successfully treat polyarthritics; treatment of humans with reumatic diseases ([4]; humans): effective in the treatment of humans with reumatic diseases; ulcerogenic activity / gastric lesions (rat stomach [5]): much less active in this respect than phenylbutazone; also recorded: produces fewer gastric lesions; % Inhibition ± standard error (paw oedema) [6, 13]: 18.60 ± 6.54%; % Inhibition ± standard error (paw oedema) [6, 14]: 36.01 ± 7.06%; Volume of paw (ml) ± standard error [6, 14]: 0.6182 ± 0.0683 mL; % Inhibition ± standard error (paw oedema) [6, 15]: 72.40 ± 4.43%; Volume of paw (ml) ± standard error [6, 15]: 0.2667 ± 0.0428 mL; % Inhibition ± standard error (paw oedema) [6, 16]: 84.00 ± 3.97%; Volume of paw (ml) ± standard error [6, 16]: 0.1545 ± 0.0384 mL; activity against inflammation compared with phenylbutazone ([6]; Table 2, at doses of 50 mg/kg and above): the more active compound; activity against inflammation compared with phenylbutazone ([6]; Table 2, overall): at least as active as phenylbutazone against inflammation; anti-inflammatory activity compared with phenylbutazone ([6]; general statement): more active as an analgesic and anti-inflammatory agent than phenylbutazone
4 | CCCCC1C(=O)N(c2ccccc2)N(c2ccccc2)C1=O [Phenylbutazone, 4-n-butyl-1,2-diphenyl-3,5-pyrazolidinedione] | ++ | 59.00 ± 6.51 | 42.10 ± 8.20 | 47.30 ± 6.70 | 42.30 ± 6.75 | 8.50 ± 10.6 | 4.30 ± 4.10 | 83.94 ± 8.22 | 7.90 ± 6.70 | 6.50 ± 2.90 | 71.23 ± 5.18 | 35.40 ± 5.50 | 22.20 ± 2.80 | 49.96 ± 4.25 | about the same degree of inhibition of granuloma tissue formation | did not | 0.73 ± 0.21 | 4.33 ± 0.47 | 5.00 ± 0.56 | 0.6545 ± 0.0545 | % inhibition ± standard error (contortions) [2, 8]: 27.70 ± 7.97%; Weight of wet granuloma ([3]; 50 mg/Kg/day per os): 434.75 ± 18.36 mg; Weight of wet granuloma ([3]; 100 mg/Kg/day per os): 424.50 ± 13.47 mg; Weight of wet granuloma ([3]; 200 mg/Kg/day per os): 353.40 ± 13.14 mg; LD50 per os in the rat (only range in parentheses printed) (rat; per os, doses in mg/kg, no central value printed): 530 - 725; most frequent serious toxic effects [7]: ulcerogenesis and fluid retention; % Inhibition ± standard error (paw oedema) [6, 14]: 28.70 ± 7.24%; Volume of paw (ml) ± standard error [6, 14]: 0.6886 ± 0.0699 mL; % Inhibition ± standard error (paw oedema) [6, 15]: 67.50 ± 2.30%; Volume of paw (ml) ± standard error [6, 15]: 0.3139 ± 0.0224 mL; % Inhibition ± standard error (paw oedema) [6, 16]: 74.60 ± 4.70%; Volume of paw (ml) ± standard error [6, 16]: 0.2458 ± 0.0454 mL
5 | CCCCC1C(=O)N(c2ccccc2)N(c2ccccc2)C1=O [Piperazine salt of Phenylbutazone] | + |  |  |  |  |  |  |  |  |  |  |  |  |  |  |  |  |  |  |  | 
